Experimental data taken from patent US9458113B2 (Boehringer Ingelheim International GmbH, priority 2014, dated 2016).

Molecular target: Human neutrophil elastase (Homo sapiens (Human), UniProt P08246)
Test: Human Neutrophil Elastase Assay
Format: biochemical
Conditions: substrate MeOSuc-Ala-Ala-Pro-Val-AMC 250 μM, pH 7.5

Human neutrophil elastase, sequence (P08246 30-247): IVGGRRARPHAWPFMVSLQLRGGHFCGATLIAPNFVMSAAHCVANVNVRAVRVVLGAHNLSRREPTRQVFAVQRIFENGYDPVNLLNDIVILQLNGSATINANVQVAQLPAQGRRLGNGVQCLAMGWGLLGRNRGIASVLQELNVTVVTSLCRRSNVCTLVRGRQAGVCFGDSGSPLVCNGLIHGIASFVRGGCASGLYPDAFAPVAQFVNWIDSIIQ

Row | IC50 [nM] | SMILES
1 | < 1 | CN1C(=O)N(c2cccc(C(F)(F)F)c2)C2=C(C(=O)CC2)C1c1ccc(C#N)cc1C1=CCNC1 (stereo not shown) [Example 14, 3-(2,5-Dihydro-1H-pyrrol-3-yl)-4-[3-methyl-2,5-dioxo-1-(3-trifluoromethyl-phenyl)-2,3,4,5,6,7-hexahydro-1H-cyclopentapyrimidin-4-yl]-benzonitrile]
2 | 10.8 | CC1CN(C(=O)c2cc(C#N)ccc2C2C3=C(CCC3=O)N(c3cccc(C(F)(F)F)c3)C(=O)N2C)CCN1 (stereo not shown) [Example 4.16]
3 | 8 | CN1CCC(NC(=O)c2cc(C#N)ccc2C2C3=C(CCC3=O)N(c3cccc(C(F)(F)F)c3)C(=O)N2C)CC1 (stereo not shown) [Example 1.25]
4 | 3.2 | CN1C(=O)N(c2cccc(C(F)(F)F)c2)C2=C(C(=O)CCC2)C1c1ccc(C#N)cc1-c1ccoc1 (stereo not shown) [Example 15, 3-Furan-3-yl-4-[3-methyl-2,5-dioxo-1-(3-trifluoromethyl-phenyl)-1,2,3,4,5,6,7,8-octahydro-quinazolin-4-yl]-benzonitrile]
5 | 6 | CN1C(=O)N(c2cccc(C(F)(F)F)c2)C2=C(C(=O)CC2)C1c1ccc(C#N)cc1C(=O)NCC(=O)N1CCOCC1 (stereo not shown) [Example 1.80]
6 | 4.7 | CNCCNC(=O)c1cc(C#N)ccc1C1C2=C(CCC2=O)N(c2cccc(C(F)(F)F)c2)C(=O)N1C (stereo not shown) [Example 4.4]
7 | 2.9 | CN1C(=O)N(c2cccc(C(F)(F)F)c2)C2=C(C(=O)CC2)C1c1ccc(C#N)cc1C(=O)NCc1cccnn1 (stereo not shown) [Example 1.50]
8 | 2.9 | CN1C(=O)N(c2cccc(C(F)(F)F)c2)C2=C(C(=O)CC2)[C@H]1c1ccc(C#N)cc1C(=O)N1CCOCC1 [Example 2.3]
9 | 32.8 | CN1C(=O)N(c2ccnc(C(F)(F)F)c2)C2=C(C(=O)CC2)C1c1ccc(C#N)cc1C(=O)N1CCCC1 (stereo not shown) [Example 8.3]
10 | < 1 | CN1C(=O)N(c2cccc(C(F)(F)F)c2)C2=C(C(=O)CC2)C1c1ccc(C#N)cc1C1=CCOCC1 (stereo not shown) [Example 11.11]
11 | 5.7 | CN1C(=O)N(c2cccc(C(F)(F)F)c2)C2=C(C(=O)CCC2)C1c1ccc(C#N)cc1-c1ccco1 (stereo not shown) [Example 15.5]
12 | 5.5 | CN1C(=O)N(c2cccc(C(F)(F)F)c2)C2=C(C(=O)CC2)C1c1ccc(C#N)cc1C(=O)NCCF (stereo not shown) [Example 1.9]
13 | 7.3 | CN1C(=O)N(c2cccc(C(F)(F)F)c2)C2=C(C(=O)CC2)C1c1ccc(C#N)cc1C(=O)N1C[C@H]2C[C@@H]1CN2 (stereo partly shown) [Example 4.15]
14 | 6.4 | CN1C(=O)N(c2cccc(C(F)(F)F)c2)C2=C(C(=O)CC2)C1c1ccc(C#N)cc1C(=O)N[C@@H]1CCNC1 (stereo partly shown) [Example 4.9]
15 | 1.3 | CC(=O)N[C@@H]1CCN(C(=O)c2cc(C#N)ccc2C2C3=C(CCC3=O)N(c3cccc(C(F)(F)F)c3)C(=O)N2C)C1 (stereo partly shown) [Example 1.84]
16 | 2.8 | CN1C(=O)N(c2cccc(C(F)(F)F)c2)C2=C(C(=O)CCC2)C1c1ccc(C#N)cc1-c1ccn(C)n1 (stereo not shown) [Example 15.1]
17 | 5.4 | CN(C)C(=O)c1cc(C#N)ccc1C1C2=C(CCC2=O)N(c2cccc(C(F)(F)F)c2)C(=O)N1C (stereo not shown) [Example 1.3]
18 | 1.9 | CN1C(=O)N(c2cccc(C(F)(F)F)c2)C2=C(C(=O)CC2)C1c1ccc(C#N)cc1-c1cncs1 (stereo not shown) [Example 11.3]
19 | 1.6 | CN1C(=O)N(c2cccc(C(F)(F)F)c2)C2=C(C(=O)CCC2)C1c1ccc(C#N)cc1C(N)=O (stereo not shown) [Example 6, 5-Cyano-2-[3-methyl-2,5-dioxo-1-(3-trifluoromethyl-phenyl)-1,2,3,4,5,6,7,8-octahydro-quinazolin-4-yl]-benzamide]

Row | IC50 [nM] | SMILES
20 | 1.3 | CN(Cc1ccn(C)n1)C(=O)c1cc(C#N)ccc1C1C2=C(CCC2=O)N(c2cccc(C(F)(F)F)c2)C(=O)N1C (stereo not shown) [Example 1.73]
21 | 10.1 | N#Cc1ccc(C2NC(=O)N(c3cccc(C(F)(F)F)c3)C3=C2C(=O)CC3)c(-c2ccoc2)c1 (stereo not shown) [Example 19, 4-[2,5-Dioxo-1-(3-trifluoromethyl-phenyl)-2,3,4,5,6,7-hexahydro-1H-cyclopentapyrimidin-4-yl]-3-furan-3-yl-benzonitrile]
22 | 2.9 | CN(CCO)C(=O)c1cc(C#N)ccc1C1C2=C(CCC2=O)N(c2cccc(C(F)(F)F)c2)C(=O)N1C (stereo not shown) [Example 1.13]
23 | 3.1 | CN1C(=O)N(c2cccc(C(F)(F)F)c2)C2=C(C(=O)CC2)C1c1ccc(C#N)cc1C(=O)NCCN (stereo not shown) [Example 4.3]
24 | 4.1 | CN1C(=O)N(c2cccc(C(F)(F)F)c2)C2=C(C(=O)CC2)C1c1ccc(C#N)cc1C(=O)N1Cc2cnn(C)c2C1 (stereo not shown) [Example 1.67]
25 | 15.1 | CN1C(=O)N(c2cccc(C(F)(F)F)c2)C2=C(C(=O)CC2)C1c1ccc(C#N)cc1C(=O)N1CCC(N)CC1 (stereo not shown) [Example 4.1]
26 | 7.4 | CN1CCC(NC(=O)c2cc(C#N)ccc2C2C3=C(CCC3=O)N(c3cccc(C(F)(F)F)c3)C(=O)N2C)C1 (stereo not shown) [Example 1.30]
27 | 10.5 | CN1C(=O)N(c2cccc(C(F)(F)F)c2)C2=C(C(=O)CC2)C1c1ccc(C#N)cc1C(=O)N1CCN(C2CC2)CC1 (stereo not shown) [Example 1.33]
28 | 4.9 | CN1C(=O)N(c2cccc(C(F)(F)F)c2)C2=C(C(=O)CC2)C1c1ccc(C#N)cc1C(=O)N[C@H]1C[C@H]1N (stereo partly shown) [Example 4.14]
29 | 1.7 | CN(Cc1ccncc1)C(=O)c1cc(C#N)ccc1C1C2=C(CCC2=O)N(c2cccc(C(F)(F)F)c2)C(=O)N1C (stereo not shown) [Example 1.65]
30 | < 1 | CN(Cc1cncn1C)C(=O)c1cc(C#N)ccc1C1C2=C(CCC2=O)N(c2cccc(C(F)(F)F)c2)C(=O)N1C (stereo not shown) [Example 1.72]
31 | 2.2 | CC(=O)N[C@H]1CCN(C(=O)c2cc(C#N)ccc2C2C3=C(CCC3=O)N(c3cccc(C(F)(F)F)c3)C(=O)N2C)C1 (stereo partly shown) [Example 1.83]
32 | 6.9 | CN1C(=O)N(c2cccc(C(F)(F)F)c2)C2=C(C(=O)CC2)C1c1ccc(C#N)cc1C(=O)N[C@H]1CCNC1 (stereo partly shown) [Example 4.6]
33 | 3.9 | COc1ccc(-c2cc(C#N)ccc2C2C3=C(CCC3=O)N(c3cccc(C(F)(F)F)c3)C(=O)N2C)cn1 (stereo not shown) [Example 11.13]
34 | 6.6 | CC(NC(=O)c1cc(C#N)ccc1C1C2=C(CCC2=O)N(c2cccc(C(F)(F)F)c2)C(=O)N1C)c1ccco1 (stereo not shown) [Example 1.51]
35 | 7.1 | CN1C(=O)N(c2cccc(C(F)(F)F)c2)C2=C(C(=O)CC2)C1c1ccc(C#N)cc1C(=O)NCC(F)(F)F (stereo not shown) [Example 1.21]
36 | 4.2 | CN1C(=O)N(c2cccc(C(F)(F)F)c2)C2=C(C(=O)CC2)C1c1ccc(C#N)cc1C(=O)NCc1ccccn1 (stereo not shown) [Example 1.47]
37 | 3.4 | CN1C(=O)N(c2cccc(C(F)(F)F)c2)C2=C(C(=O)CC2)C1c1ccc(C#N)cc1C(=O)N1CCCC1 (stereo not shown) [Example 1.10]
38 | 5.5 | CCNC(=O)c1cc(C#N)ccc1C1C2=C(CCC2=O)N(c2cccc(C(F)(F)F)c2)C(=O)N1C (stereo not shown) [Example 1.2]

Row | SMILES | IC50 [nM]
39 | CN1C(=O)N(c2cccc(C(F)(F)F)c2)C2=C(C(=O)CC2)C1c1ccc(C#N)cc1C(=O)N1CC2COCC(C1)N2 (stereo not shown) [Example 4.17] | 36.2
40 | CN1C(=O)N(c2cccc(C(F)(F)F)c2)C2=C(C(=O)CC2)C1c1ccc(C#N)cc1C1=CCN(C(=O)OC(C)(C)C)C1 (stereo not shown) [Example 11.4, 3-{5-Cyano-2-[3-methyl-2,5-dioxo-1-(3-trifluoromethyl-phenyl)-2,3,4,5,6,7-hexahydro-1H-cyclopentapyrimidin-4-yl]-phenyl}-2,5-dihydro-pyrrole-1-carboxylic acid tert-butyl ester] | 2.5
